This note sets out measurements from PubChem BioAssay (NCI).

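Values below derive from 48-hour exposures of cells grown in 96-well plates, with endpoints linearly interpolated between the two concentrations bracketing the appropriate inhibition level. Abbreviation: GI50, concentration required for 50% inhibition of growth. Definition used: TGI = concentration required for complete inhibition of growth.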 Where a SMILES comes first, the peptide text is derived from it. [ ]: non-standard residue; d: D form.

What all share (test): NCI-60 cell line screen, 48 h
The subject of experiment [1] is EKVX NSCLC.
Experiment [2] concerns OVCAR-8 ovarian.
Experiment [3] deals with DU-145 prostate.
Experiment [4] deals with SNB-75 CNS.
The subject of experiment [5] is SK-MEL-28 melanoma.
The test system of experiment [6] is COLO 205 colon.
The test system of experiment [7] is 786-0 renal.
For experiment [8], the system named is U251 CNS.
For experiment [9], the system named is SNB-19 CNS.
Experiment [10] relates to MALME-3M melanoma.

In the case of `C=C(CN1CCN(c2ccc(F)c(Cl)c2)CC1)c1ccc(C(=O)Nc2ccccc2N)cc1`, the GI50 in experiment [1] was 15.8 µM; in [2], 5.42 µM; in [3], 8.76 µM; in experiment [4], above 100 µM; in [5] it was 0.529 µM; in experiment [6], above 100 µM. For the same compound, the GI50 in [7] is 2.88 µM; in experiment [8], 4.42 µM; in experiment [9], above 100 µM; in experiment [10] it was 4.35 µM. Further, the TGI in experiment [1] is above 100 µM; in experiment [2], above 100 µM; in experiment [3] it was 40.4 µM; in experiment [4], above 100 µM; in experiment [5], above 100 µM; in experiment [6], above 100 µM. For the same compound, the TGI in experiment [7] is 13.4 µM; in experiment [8], 23.7 µM; in [9], above 100 µM; in experiment [10], 37.2 µM.

As to `O=C1CC2OCC=C3CN4CCC5(C(=O)O)C(N1)C2C3CC45` (stereo not given), the TGI in [1], in experiment [2], in experiment [3], in experiment [4], in experiment [5] and in experiment [6] was above 100 µM each time. Also, the TGI in experiment [7], in experiment [8], in experiment [9] and in [10] was above 100 µM each time.

For `COC(=N)CCCl`, the TGI in [1], in experiment [2], in experiment [3], in experiment [4], in experiment [5] and in [6] was above 100 µM in each case. Also, the TGI in [7], in [8], in experiment [9] and in [10] was above 100 µM in each case.

`O=S(=O)(Nc1ccc(Cl)c(Cl)c1)c1ccc(-c2cnc(C3CC3)o2)cc1`: the GI50 in experiment [1] is 1.15 µM; in experiment [2], 1.23 µM; in experiment [3] it was 0.736 µM; in experiment [4], 0.138 µM; in experiment [5], 4.19 µM; in experiment [6], 0.501 µM. The GI50 in [7] is 0.668 µM; in experiment [8], 0.607 µM; in experiment [9] it was 0.534 µM; in [10] it was 2.67 µM. Besides, the TGI worked out at 30.4 µM in experiment [1]; 20.1 µM in experiment [2]; 13.9 µM in experiment [3]; 0.558 µM in experiment [4]; 21.5 µM in [5]; 3.36 µM in experiment [6]. In addition, the TGI in [7] was found to be 18.8 µM; in experiment [8], 16.3 µM; in experiment [9] it was 17.1 µM; in [10], 25.8 µM.

`Cc1c(C2CCSc3ccccc3N2)sc2ccccc12` (stereo not given): the TGI in [1], in [2], in experiment [3], in experiment [4], in [5] and in experiment [6] was above 100 µM each time. Also, the TGI in experiment [7], in experiment [8], in experiment [9] and in experiment [10] was above 100 µM throughout.

For the compound `CCOC(=O)N(O)c1ccc(/C=C/c2ccccc2)cc1`, the GI50 is 9.05 µM in [1]; 10.9 µM in experiment [2]; 11.2 µM in experiment [3]; 29.3 µM in experiment [4]; 17.6 µM in [5]; 13.2 µM in experiment [6]. Further, the GI50 in experiment [7] was 10.9 µM; in experiment [8], 4.72 µM; in [9], 18.5 µM; in experiment [10] it was 19.5 µM. Moreover, the TGI in experiment [1] was 63.6 µM; in experiment [2], above 100 µM; in experiment [3], above 88.6 µM; in experiment [4] it was above 100 µM; in [5], 59.8 µM; in experiment [6] it was 38.5 µM. For the same compound, the TGI in [7] was above 51.1 µM; in [8], 29.2 µM; in [9] it was above 100 µM; in experiment [10], 61.4 µM.

`Cc1cn2cc(-c3ccc4c(c3)CC(=O)N4)nc2s1`: the GI50 in experiment [1] was 79.2 µM; in experiment [2], above 100 µM; in experiment [3] it was above 100 µM; in [4], above 100 µM; in [5] it was above 100 µM; in [6], above 100 µM. For the same compound, the GI50 in experiment [7], in experiment [8], in [9] and in experiment [10] was above 100 µM throughout. The TGI in experiment [1], in [2], in experiment [3], in experiment [4], in experiment [5] and in [6] was above 100 µM throughout. In addition, the TGI in [7], in [8], in experiment [9] and in experiment [10] was above 100 µM each time.

For `N=C1C=C(N)C(=O)c2ccccc21`, the GI50 in experiment [1] was 0.202 µM; in [2] it was 0.248 µM; in experiment [3], 0.191 µM; in experiment [4], 0.151 µM; in experiment [5], 0.496 µM; in [6], 0.267 µM. In addition, the GI50 in experiment [7] is 0.202 µM; in [8], 0.183 µM; in experiment [9] it was 0.598 µM; in experiment [10] it was 0.173 µM. The TGI in experiment [1] is 0.421 µM; in experiment [2], 0.661 µM; in experiment [3] it was 0.345 µM; in experiment [4], 0.293 µM; in experiment [5], 1.64 µM; in experiment [6], 0.664 µM. Besides, the TGI was found to be 0.406 µM in experiment [7], 0.339 µM in [8], 1.97 µM in experiment [9] and 0.321 µM in [10].

Take `CC(=O)/C(=C/N1CCN(C(=O)c2ccco2)C1=S)C(=O)c1ccccc1`: the GI50 in [1] is 7.9 µM; in [2], 8.75 µM; in experiment [3] it was 11 µM; in experiment [4] it was 10.9 µM; in [5] it was 28 µM; in [6] it was 16.5 µM. In addition, the GI50 in experiment [7] is 11.2 µM; in experiment [8], 13.4 µM; in [9], 16.3 µM; in experiment [10], 9.28 µM. Moreover, the TGI in experiment [1] was 21.3 µM; in experiment [2], 24.3 µM; in [3], 30.4 µM; in [4], 35.9 µM; in [5], above 50 µM; in experiment [6], 45.1 µM. Further, the TGI is 25.1 µM in experiment [7], above 50 µM in experiment [8], above 50 µM in [9] and 46.7 µM in [10].

For `C[C@@H](C[C@H](CCO)c1ccccc1)c1ccc2ccccc2c1`, the GI50 in experiment [1] is 1.44 µM; in [2], 1.85 µM; in experiment [3], 1.47 µM; in [4] it was 1.35 µM; in [5], 1.64 µM; in experiment [6], 1.75 µM. Moreover, the GI50 in experiment [7] is 1.51 µM; in [8], 1.57 µM; in [9], 1.79 µM; in experiment [10], 1.49 µM. Also, the TGI in [1] is 2.82 µM; in experiment [2], 3.82 µM; in experiment [3], 2.84 µM; in experiment [4] it was 2.76 µM; in [5] it was 3.06 µM; in experiment [6], 3.41 µM. Besides, the TGI in experiment [7] is 2.89 µM; in experiment [8], 2.94 µM; in experiment [9] it was 3.42 µM; in experiment [10], 2.89 µM.

In the case of `CC(C)OP(=O)(OC(C)C)/C(C#N)=C/c1c[nH]c2ccccc12`, the TGI in experiment [1], in experiment [2], in [3], in [4], in [5] and in experiment [6] was above 100 µM each time. Also, the TGI in experiment [7], in [8], in experiment [9] and in experiment [10] was above 100 µM in each case.

Turning to `CSCC[C@H](NC(=O)[C@@H](N)CC(N)=O)C(=O)N[C@@H](Cc1c[nH]c2ccccc12)C(=O)N[C@@H](CCC(N)=O)C(=O)N[C@@H](CCC(=O)O)C(=O)N[C@H](C(=O)NCC(=O)N[C@@H](CCCCN)C(=O)N[C@H](C)C(=O)O)C(C)C` (H-NMWQEVGK[dA]-OH), the TGI in experiment [1], in experiment [2], in [3], in experiment [4], in experiment [5] and in [6] was above 100 µM in each case. Further, the TGI in experiment [7], in experiment [8], in [9] and in [10] was above 100 µM each time.

On to `COc1ccc(/C=C2/CSC/C(=C/c3ccc(OC)c(OC)c3)C2=O)cc1OC`, for which the TGI in [1] was 42.8 µM; in experiment [2], 2.19 µM; in experiment [3], 9.07 µM; in experiment [4] it was above 100 µM; in experiment [5] it was 9.76 µM; in experiment [6] it was 6.28 µM. For the same compound, the TGI stood at 3.56 µM in experiment [7], 2.72 µM in [8], 16.2 µM in experiment [9] and 12.2 µM in experiment [10].
